The values that follow come from article PMC11172311, “Structural and Interactional Analysis of the Flavonoid Pathway Proteins: Chalcone Synthase, Chalcone Isomerase and Chalcone Isomerase-like Protein” (International Journal of Molecular Sciences, 2024).

Experiment [1] has as its target T1, PvCHS (chalcone synthase) (Panicum virgatum, UniProt A0A8T0PQ54).
T1 construct: gene PVAP13_8KG261900; full-length with N-terminal His6-tag; residues 8 to 395 of 402 resolved
T1 sequence (A0A8T0PQ54 1-402): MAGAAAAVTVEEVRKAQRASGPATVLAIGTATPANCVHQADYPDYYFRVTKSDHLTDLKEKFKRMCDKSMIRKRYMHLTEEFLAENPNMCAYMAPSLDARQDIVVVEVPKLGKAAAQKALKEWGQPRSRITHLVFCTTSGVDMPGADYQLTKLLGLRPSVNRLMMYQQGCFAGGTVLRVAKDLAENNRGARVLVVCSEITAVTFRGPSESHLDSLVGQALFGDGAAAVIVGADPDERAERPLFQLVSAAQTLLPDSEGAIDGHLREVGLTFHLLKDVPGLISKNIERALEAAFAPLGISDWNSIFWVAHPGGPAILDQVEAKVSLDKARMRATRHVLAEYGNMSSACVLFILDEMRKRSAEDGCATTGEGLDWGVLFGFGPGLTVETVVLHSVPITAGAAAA
Nature of the experiment: X-ray crystal structure (co-crystallization). Format: binding.

Experiment [2] deals with T2, PvCHI (chalcone isomerase) (Panicum virgatum, UniProt A0A8T0N7A2).
T2 construct: gene PVAP13_9KG390224; recombinant, N-terminal 6×-His tag
T2 sequence (A0A8T0N7A2 1-235): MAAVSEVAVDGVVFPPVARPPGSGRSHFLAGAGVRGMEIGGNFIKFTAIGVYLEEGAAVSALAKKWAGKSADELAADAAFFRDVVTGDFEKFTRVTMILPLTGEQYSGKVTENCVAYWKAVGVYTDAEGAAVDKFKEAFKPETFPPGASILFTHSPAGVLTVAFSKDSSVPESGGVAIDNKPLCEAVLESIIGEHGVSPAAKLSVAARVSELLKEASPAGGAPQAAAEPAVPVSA
Description: steady-state kinetics with naringenin chalcone as substrate, […] liquiritigenin. Format: biochemical.

For experiment [3], the target named is T3, SbCHI (chalcone isomerase, Bmr30) (Sorghum bicolor, UniProt C5WV22).
T3 construct: gene SORBI_3001G035600; recombinant SbCHI
T3 sequence (C5WV22 1-231): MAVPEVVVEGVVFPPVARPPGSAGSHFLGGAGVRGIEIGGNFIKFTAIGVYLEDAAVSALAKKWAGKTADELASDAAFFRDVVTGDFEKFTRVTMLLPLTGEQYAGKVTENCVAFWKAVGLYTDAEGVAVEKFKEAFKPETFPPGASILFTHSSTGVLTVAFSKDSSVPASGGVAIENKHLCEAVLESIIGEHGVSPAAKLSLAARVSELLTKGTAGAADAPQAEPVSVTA
Description: X-ray crystal structure (binary complex). Format: binding.

In experiment [4] the target is T2, PvCHI (chalcone isomerase). Nature of the experiment: steady-state kinetics at […] nm; substrate inhibition (Km […], KI […]). Format: biochemical.
For experiment [5], the target named is T1, PvCHS (chalcone synthase). Nature of the experiment: X-ray crystal structure (co-crystallization, ternary complex with CoA). Format: binding.

As for `CC(C)(COP(=O)(O)OP(=O)(O)OC[C@H]1O[C@@H](n2cnc3c(N)ncnc32)[C@H](O)[C@@H]1OP(=O)(O)O)[C@@H](O)C(=O)NCCC(=O)NCCS` [CoA], in experiment [1], the “X-ray crystal structure (co-crystallization)” value is “The electron density corresponding to an extended CoA molecule (Figure 2B) along a continuous tunnel”. For the compound `O=C1C[C@@H](c2ccc(O)cc2)Oc2cc(O)ccc21` [liquiritigenin], in experiment [2], the Ki came to 0.285 µM. Besides, the “X-ray crystal structure (binary complex)” value in experiment [3] is “the electron density corresponding to liquiritigenin that had been added to the crystallization buffer was clearly identified”.

In experiment [4], `O=C(/C=C/c1ccc(O)cc1)c1ccc(O)cc1O` [isoliquiritigenin] had a Ki of 11.2 µM. For `O=C1C[C@@H](c2ccc(O)cc2)Oc2cc(O)cc(O)c21` [naringenin], the “X-ray crystal structure (co-crystallization, ternary complex with CoA)” value in experiment [5] is on record as “one naringenin molecule was visible in the concave pocket established at the interface between two PvCHS dimers”.
